Results reported in US10065990B2, “Cyclic peptide compound, and preparation method, pharmaceutical composition and use thereof” (HANGZHOU GUANYU BIO-MEDICAL CO., LTD, priority 2013, dated 2018).
Like-named read-outs stand apart in the source and are kept apart here.

Experiments:
[1] = molecular target: T1, HDAC7 (Homo sapiens, UniProt Q8WUI4); assay: HDAC biochemical activity measurement (fluorescent substrate deacetylation);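 note: fluorogenic deacetylation assay using acetyl-lysine substrate at 20 µM, enzyme and compound incubated 30 min at 37 °C, then developer added, fluorescence read at 360/460 nm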; conditions: HDAC7; 37° C. 30 minutes
T1 sequence (Q8WUI4 1-952): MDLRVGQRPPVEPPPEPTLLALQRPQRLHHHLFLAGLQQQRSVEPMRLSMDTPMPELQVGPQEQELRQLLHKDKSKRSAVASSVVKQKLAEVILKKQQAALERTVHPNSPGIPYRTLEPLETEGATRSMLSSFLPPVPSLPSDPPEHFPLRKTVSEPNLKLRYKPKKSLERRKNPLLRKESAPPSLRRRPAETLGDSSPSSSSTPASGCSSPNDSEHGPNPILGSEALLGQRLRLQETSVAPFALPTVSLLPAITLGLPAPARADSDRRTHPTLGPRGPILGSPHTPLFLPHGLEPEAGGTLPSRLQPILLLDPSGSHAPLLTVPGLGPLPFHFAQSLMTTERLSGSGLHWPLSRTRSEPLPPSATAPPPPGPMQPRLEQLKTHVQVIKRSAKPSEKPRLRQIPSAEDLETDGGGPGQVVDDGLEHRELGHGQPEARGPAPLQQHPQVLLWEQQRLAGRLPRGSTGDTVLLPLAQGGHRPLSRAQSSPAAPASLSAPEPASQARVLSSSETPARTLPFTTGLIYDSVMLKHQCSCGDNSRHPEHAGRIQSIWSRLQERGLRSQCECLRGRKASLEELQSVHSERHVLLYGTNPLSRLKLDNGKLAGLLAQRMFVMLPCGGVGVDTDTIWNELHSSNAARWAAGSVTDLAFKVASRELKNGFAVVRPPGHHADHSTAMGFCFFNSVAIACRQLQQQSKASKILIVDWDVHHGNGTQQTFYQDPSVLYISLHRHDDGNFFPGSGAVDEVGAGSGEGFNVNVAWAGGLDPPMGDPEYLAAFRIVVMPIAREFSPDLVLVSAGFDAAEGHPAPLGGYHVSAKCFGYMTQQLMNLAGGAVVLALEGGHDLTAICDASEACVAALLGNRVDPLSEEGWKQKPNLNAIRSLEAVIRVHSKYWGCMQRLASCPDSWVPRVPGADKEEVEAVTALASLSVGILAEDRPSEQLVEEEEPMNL

[2] = test system: Bel-7402 (human hepatoma cells); assay: MTT cancer cell growth inhibition; assay type: cell-based; conditions: Homo sapiens, Bel-7402, 72 h, MTT, 72 hours incubation, Bel-7402 cells; read-out: GI50 Bel-7402
Excerpt: (§1) MTT assay principle is yellow MTT can penetrate membrane into the cell, succinic dehydrogenase of the mitochondria in living cells can make exogenous MTT reduction of insoluble in water of blue-violet acicular formazan for crystallization and deposition in the cell, crystallization can be dissolved dimethyl sulfoxide (DMSO) solution, detected its absorbance at 490 nm/570 nm wavelength by enzyme-linked immunosorbent assay, which can reflect the number of cells.
(§2) Using DMEM+10% FBS culture medium or using 1640+10% FBS culture, respectively.
(§3) a) Cells were seeded in 96-well plates with the inoculation of 1500/well, 190 μl/hole, 37° C., 5% of CO2 incubator overnight;
(§4) b) The next day each well was added 10 μl of different drugs. The final concentration of drug was 10^−5˜10^−10M, three parallel holes; 37° C., 5% CO2 culture incubator for 72 hours incubation;
(§5) c) Per well was added 20 μl 5 mg/ml of MTT, 37° C., 5% CO2 culture incubator for 4 hours incubation;
(§6) d) The supernatant was discarded. Each well was added 100 μl of DMSO and oscillation;
(§7) e) 570 nm readings. Calculate cell viability. GI50 calculation based on the results.

[3] = test system: BGC-823 (human gastric cancer cells); assay: MTT cancer cell growth inhibition; assay type: cell-based; conditions: Homo sapiens, BGC-823, 72 h, MTT, 72 hours incubation, read-out: GI50 BG
Excerpt: as §1, §2, §3, §4, §5, §6, §7

[4] = test system: U937 (human leukemia cells); assay: MTT cancer cell growth inhibition; assay type: cell-based; conditions: Homo sapiens, U-937, 72 h, MTT, 72 hours incubation, read-out: GI50 U93
Excerpt: as §1, §2, §3, §4, §5, §6, §7

[5] = test system: Hela (human cervical cancer cells); assay: MTT cancer cell growth inhibition; assay type: cell-based; conditions: Homo sapiens, HeLa, 72 h, MTT, 72 hours incubation, read-out: GI50 Hela
Excerpt: as §1, §2, §3, §4, §5, §6, §7

[6] = test system: HT1080 (human fibrosarcoma cells); assay: MTT cancer cell growth inhibition; assay type: cell-based; conditions: Homo sapiens, HT-1080, 72 h, MTT, 72 hours incubation, read-out: GI50 HT1
Excerpt: as §1, §2, §3, §4, §5, §6, §7

[7] = test system: N-87 (human gastric cancer cells); assay: MTT cancer cell growth inhibition; assay type: cell-based; conditions: Homo sapiens, 72 h, MTT, 72 hours incubation, N-87 cells; read-out: GI50 N-87
Excerpt: as §1, §2, §3, §4, §5, §6, §7

[8] = test system: Huh-7 (human hepatoma cells); assay: MTT cancer cell growth inhibition; assay type: cell-based; conditions: Homo sapiens, Huh-7, 72 h, MTT, 72 hours incubation, Huh-7 cells; read-out: GI50 Huh-7
Excerpt: as §1, §2, §3, §4, §5, §6, §7

[9] = test system: H1975 (non-small cell lung adenocarcinoma); assay: MTT cancer cell growth inhibition; assay type: cell-based; conditions: Homo sapiens, NCI-H1975, 72 h, MTT, 72 hours incubation, H1975 cells; read-out: GI50 H1975
Excerpt: as §1, §2, §3, §4, §5, §6, §7

[10] = test system: HCC827 (human non-small cell lung cancer cells); assay: MTT cancer cell growth inhibition; assay type: cell-based; conditions: Homo sapiens, HCC827, 72 h, MTT, 72 hours incubation, HCC827 cells; read-out: GI50 HCC827
Excerpt: as §1, §2, §3, §4, §5, §6, §7

[11] = test system: DU145 (human prostate cancer cells); assay: MTT cancer cell growth inhibition; assay type: cell-based; conditions: Homo sapiens, DU-145, 72 h, MTT, 72 hours incubation, read-out: GI50 Du1
Excerpt: as §1, §2, §3, §4, §5, §6, §7

[12] = test system: A549 (human lung cancer cells); assay: MTT cancer cell growth inhibition; assay type: cell-based; conditions: Homo sapiens, A549, 72 h, MTT, 72 hours incubation, read-out: GI50 A54
Excerpt: as §1, §2, §3, §4, §5, §6, §7

[13] = test system: MCF-7 (human breast cancer cells); assay: MTT cancer cell growth inhibition; assay type: cell-based; conditions: Homo sapiens, MCF7, 72 h, 72 hours incubation, read-out: GI50 MCF
Excerpt: as §1, §2, §3, §4, §5, §6, §7

[14] = test system: KBM5-T315I (human chronic myelogenous leukemia); assay: MTT cancer cell growth inhibition; assay type: cell-based; conditions: Homo sapiens, 72 h, MTT, 72 hours incubation, KBM5-T315I cells; read-out: GI50 KBM5-T315I
Excerpt: as §1, §2, §3, §4, §5, §6, §7

[15] = test system: lncap (prostate cancer cells); assay: MTT cancer cell growth inhibition; assay type: cell-based; conditions: Homo sapiens, LNCaP, 72 h, MTT, 72 hours incubation, read-out: GI50 lnca
Excerpt: as §1, §2, §3, §4, §5, §6, §7

[16] = test system: MDA-MB-231 (breast cancer cells); assay: MTT cancer cell growth inhibition; assay type: cell-based; conditions: Homo sapiens, MDA-MB-231, 72 h, read-out: GI50 MDA-MB-231, MTT, 72 hours incubation, MDA-MB-231 cells
Excerpt: as §1, §2, §3, §4, §5, §6, §7

[17] = test system: KBM-5 (human chronic myelogenous leukemia); assay: MTT cancer cell growth inhibition; assay type: cell-based; conditions: Homo sapiens, KBM5, 72 h, MTT, 72 hours incubation, KBM-5 cells; read-out: GI50 KBM-5
Excerpt: as §1, §2, §3, §4, §5, §6, §7

[18] = test system: MOLT-4 (human acute lymphoblastic leukemia cells); assay: MTT cancer cell growth inhibition; assay type: cell-based; conditions: Homo sapiens, MOLT-4, 72 h, MTT, 72 hours incubation, read-out: GI50 Mol
Excerpt: as §1, §2, §3, §4, §5, §6, §7

[19] = test system: K562 (human leukemia cells); assay: MTT cancer cell growth inhibition; assay type: cell-based; conditions: Homo sapiens, K562, 72 h, MTT, 72 hours incubation, K562 cells; read-out: GI50 K562
Excerpt: as §1, §2, §3, §4, §5, §6, §7

[20] = test system: SGC-7901 (human gastric cancer cells); assay: MTT cancer cell growth inhibition; assay type: cell-based; conditions: Homo sapiens, SGC-7901, 72 h, MTT, 72 hours incubation, SGC-7901 cells; read-out: GI50 SGC-7901
Excerpt: as §1, §2, §3, §4, §5, §6, §7

[21] = test system: PANC-1 (Pac-1, human pancreatic cancer cells); assay: MTT cancer cell growth inhibition; assay type: cell-based; conditions: Homo sapiens, PANC-1, 72 h, MTT, 72 hours incubation, read-out: GI50 PAN
Excerpt: as §1, §2, §3, §4, §5, §6, §7

SMILES | IC50 HDAC7 [1] | GI50 [2] [nM] | GI50 ([3]; BGC-823 cells) [nM] | GI50 ([4]; U937 cells) [nM] | GI50 ([5]; Hela cells) [nM] | GI50 ([6]; HT1080 cells) [nM] | GI50 [7] [nM] | GI50 [8] [nM] | GI50 [9] [nM] | GI50 [10] [nM] | GI50 ([11]; DU145 cells) [nM] | GI50 ([12]; A549 cells) [nM] | GI50 ([13]; MCF-7 cells) [nM] | GI50 [14] [nM] | GI50 ([15]; lncap cells) [nM] | GI50 [16] [nM] | GI50 [17] [nM] | GI50 ([18]; MOLT-4 cells) [nM] | GI50 [19] [nM] | GI50 [20] [nM] | other results
C/C=C1\NC(=O)c2nc(ccc2SC)CNC(=O)C[C@@H](/C=C/CCSC(=O)CCCCCCC)OC(=O)[C@H](C)NC1=O [Compound 180] | no activity | 48 | 50 | 70 | 100 | 50 | 62 | 17 | 97 | 13 | 60 | 30 | 20 | 57 | 20 | 56 | 29 | 50 | 49 | 35 | GI50 ([21]; PANC-1 cells): 30 nM
C/C=C1\NC(=O)c2ccc(SC)c(n2)CNC(=O)C[C@@H](/C=C/CCSC(C)=O)OC(=O)[C@H](Cc2ccccc2)NC1=O [Compound 188] | no activity | 42 | 30 | 40 | 50 | 80 | 28 | 79 | 53 | 29 | 30 | 20 | 30 | 36 | 60 | 23 | 18 | 30 | 36 | 71 | GI50 ([21]; PANC-1 cells): 50 nM
CC(=O)SCC/C=C/[C@@H]1CC(=O)NCc2nc(ccc2F)C(=O)NC(=C(C)C)C(=O)N[C@@H](C(C)C)C(=O)O1 [Compound 89] | no activity | 83 | – | – | – | – | 13 | 31 | 26 | 83 | – | – | – | 38 | – | 31 | 93 | – | 16 | 34 | GI50 [3]: 10 nM; GI50 [4]: 20 nM; GI50 [5]: 90 nM; GI50 [6]: 80 nM; GI50 [11]: 10 nM; GI50 [12]: 30 nM; GI50 [13]: 30 nM; GI50 [15]: 30 nM; GI50 [18]: 30 nM; GI50 [21]: 80 nM
